Strand notation (5' to 3'): a small letter for the sugar, then the base; units joined by * are phosphorothioate-linked, units joined directly phosphodiester-linked; [ ] holds rarer units or linkages, { } end groups; capitals alone tell only the bases. e = 2'-O-(2-methoxyethyl) (MOE); k = constrained ethyl (cEt); [5mC] = 5-methylcytosine; d = 2'-deoxy (DNA)

The values that follow come from US11840686B2, “Modulation of prekallikrein (PKK) expression” (Ionis Pharmaceuticals, Inc., priority 2013, dated 2023).

The data set concerns human PKK mRNA. Nature of the data set: Antisense inhibition of human PKK mRNA in HepaRG cells, 1,000 nM, MOE/deoxy/cEt oligonucleotides (Example 3). The format is cell-based. Put shortly:
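HepaRG cells at 20,000 per well electroporated with 1,000 nM 16-mer MOE/cEt/deoxy gapmers (phosphorothioate, 5-methylcytosine). After about 24 h, PKK mRNA measured by qRT-PCR with primer probe set RTS3454, normalized to RIBOGREEN total RNA. Reported as percent inhibition versus untreated cells.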

The mark [1] stands for this setting: Table 30, human PKK mRNA, HepaRG cells, 1,000 nM antisense oligonucleotide.
The mark [2] stands for this setting: Table 19, HepaRG cells, electroporation with 1,000 nM antisense oligonucleotide, approximately 24 hours, PKK mRNA by RT-PCR (RTS3454), relative to untreated control cells.
[3] abbreviates: HepaRG cells, electroporation with 1,000 nM antisense oligonucleotide, approximately 24 hours, primer probe set RTS3454, relative to untreated control cells, experiment of Table 23.
Where [4] appears, read: HepaRG cells, electroporation with 1,000 nM antisense oligonucleotide, approximately 24 hours, primer probe set RTS3454, relative to untreated control cells, experiment of Table 24.
Setting [5] is: Table 27, HepaRG cells, 1,000 nM antisense oligonucleotide, human PKK mRNA.
[6] abbreviates: Table 21 experiment, HepaRG cells, electroporation with 1,000 nM antisense oligonucleotide, approx. 24 hours, PKK mRNA by RT-PCR (RTS3454), relative to untreated control cells.
The mark [7] stands for this setting: Table 20, HepaRG cells, electroporation with 1,000 nM antisense oligonucleotide, approximately 24 hours, PKK mRNA by RT-PCR (RTS3454), relative to untreated control cells.
The mark [8] stands for this setting: Table 22 experiment, HepaRG cells, electroporation with 1,000 nM antisense oligonucleotide, approx. 24 hours, PKK mRNA by RT-PCR (RTS3454), relative to untreated control cells.
Where [9] appears, read: HepaRG cells, electroporation with 1,000 nM antisense oligonucleotide, approx. 24 hours, PKK mRNA by RT-PCR (RTS3454), relative to untreated control cells, Table 26 experiment.
The mark [10] stands for this setting: Table 28, HepaRG cells, 1,000 nM antisense oligonucleotide, human PKK mRNA.
Where [11] appears, read: HepaRG cells, electroporation with 1,000 nM antisense oligonucleotide, approx. 24 hours, PKK mRNA by RT-PCR (RTS3454), relative to untreated control cells, Table 25 experiment.
[12] abbreviates: HepaRG cells, 1,000 nM antisense oligonucleotide, Table 29.

The term % inhibition denotes the drop in the measured response relative to a control, in per cent. For “548384 (e[5mC]*eT*k[5mC]*dA*d[5mC]*d[5mC]*dG*dG*dT*dA*d[5mC]*dT*d[5mC]*kT*kG*e[5mC]; antisense) [compound 548384]”, under setting [1], the “% inhibition” value is on record as 49%.
For the substance “548135 (eT*e[5mC]*kA*dG*dA*dA*dT*dT*dT*dG*dA*d[5mC]*dT*kT*kG*eA; antisense) [compound 548135]”, the “% inhibition” value under setting [2] is reported as 46%.
Take “547993 (antisense eT*eA*kG*dA*dT*dA*dA*dT*d[5mC]*dT*dT*dA*dA*kG*kA*eA) [compound 547993]”: the “% inhibition” value under setting [3] came out at 26%.
For “548015 (eT*eT*kG*dT*d[5mC]*d[5mC]*d[5mC]*d[5mC]*dA*dG*dT*dG*dT*kT*kA*e[5mC]; antisense) [compound 548015]”, the “% inhibition” value under setting [4] is 50%.
For the substance “548346 (antisense eT*e[5mC]*k[5mC]*d[5mC]*d[5mC]*dA*dA*dT*dA*d[5mC]*dT*dT*dG*k[5mC]*kT*eG) [compound 548346]”, the “% inhibition” value under setting [5] was found to be 35%.
Turning to “547785 (antisense eG*eT*kT*dG*d[5mC]*dT*dT*dG*d[5mC]*dT*dT*dG*dA*kA*kT*eA) [compound 547785]”, the “% inhibition” value under setting [6] is recorded as 48%.
On to “548402 (e[5mC]*e[5mC]*k[5mC]*d[5mC]*dA*dT*d[5mC]*dT*d[5mC]*dG*dA*dA*dG*k[5mC]*k[5mC]*e[5mC]; antisense) [compound 548402]”, for which the “% inhibition” value under setting [1] is recorded as 45%.
As to “547909 (e[5mC]*e[5mC]*kA*dA*dT*dT*dT*d[5mC]*dT*dG*dA*dA*dA*kG*kG*eG; antisense) [compound 547909]”, the “% inhibition” value was 82% under setting [7] and 51% under setting [8].
On to “548393 (e[5mC]*eG*k[5mC]*dT*dT*d[5mC]*dA*dG*dG*dA*dA*dA*dG*k[5mC]*kG*eA; antisense) [compound 548393]”, for which the “% inhibition” value under setting [1] stood at 26%.
Turning to “547969 (antisense eT*e[5mC]*k[5mC]*d[5mC]*dG*dG*dG*dT*dA*dA*dA*dT*dT*kT*kT*eA) [compound 547969]”, the “% inhibition” value under setting [3] is reported as 0%.
In the case of “548396 (eT*eA*kA*dT*dG*dA*dG*dT*dG*dG*dG*dT*dT*kA*kG*eG; antisense) [compound 548396]”, under setting [1], the “% inhibition” value is on record as 0%.
Take “548263 (antisense e[5mC]*eT*k[5mC]*dT*dA*d[5mC]*dA*dT*dA*d[5mC]*dT*d[5mC]*dA*kG*kG*eA) [compound 548263]”: under setting [9], the “% inhibition” value was determined as 62%.
As for “548510 (antisense eT*eT*kA*dG*d[5mC]*d[5mC]*dA*d[5mC]*dT*d[5mC]*d[5mC]*dT*d[5mC]*kT*kT*eG) [compound 548510]”, the “% inhibition” value under setting [10] stood at 30%.
“548234 (eT*eT*kA*dT*dT*dG*dT*dA*dG*d[5mC]*d[5mC]*dA*dT*kA*k[5mC]*eA; antisense) [compound 548234]”: the “% inhibition” value under setting [9] is listed as 17%.
For the substance “548644 (antisense eA*eA*k[5mC]*dT*dG*dG*dG*d[5mC]*dA*dG*dT*d[5mC]*d[5mC]*kT*kT*e[5mC]) [compound 548644]”, under “PKK mRNA, HepaRG cells, 1,000 nM antisense oligonucleotide, Table 31”, the “% inhibition” value is listed as 14%.
On to “548156 (eT*e[5mC]*kA*dG*d[5mC]*d[5mC]*d[5mC]*d[5mC]*dT*dG*dG*dT*dT*kA*k[5mC]*eG; antisense) [compound 548156]”, for which the “% inhibition” value under setting [11] came to 0%.
With “547949 (eG*eT*kG*dT*dT*dT*dT*d[5mC]*dT*dT*dG*dA*dG*kG*kA*eG; antisense) [compound 547949]”, the “% inhibition” value under setting [3] was 6%.
Turning to “547936 (eG*eA*k[5mC]*dT*d[5mC]*dG*dA*dT*dT*dT*dT*d[5mC]*d[5mC]*kA*kT*eA; antisense) [compound 547936]”, the “% inhibition” value under setting [3] stood at 44%.
On to “548284 (antisense e[5mC]*e[5mC]*k[5mC]*d[5mC]*d[5mC]*dT*dG*dT*dA*dG*dT*dT*dG*kG*k[5mC]*eT) [compound 548284]”, for which the “% inhibition” value under setting [9] is 35%.
With “548579 (eG*eG*kG*d[5mC]*dT*dA*dT*dA*dT*dT*dG*d[5mC]*d[5mC]*kA*kG*e[5mC]; antisense) [compound 548579]”, under setting [12], the “% inhibition” value is 46%.
In the case of “547960 (eT*eG*k[5mC]*dA*dG*dG*dT*dT*dA*dA*dA*dA*dG*kG*k[5mC]*eT; antisense) [compound 547960]”, under setting [3], the “% inhibition” value stood at 40%.
Consider “548498 (antisense e[5mC]*e[5mC]*kG*dA*dT*dA*dA*d[5mC]*dA*dG*dA*d[5mC]*d[5mC]*kG*kG*e[5mC]) [compound 548498]”, for which the “% inhibition” value under setting [10] came to 71%.
Consider “548179 (eG*eG*kA*dG*dA*dT*d[5mC]*dT*d[5mC]*dA*dG*dT*dT*kG*k[5mC]*eG; antisense) [compound 548179]”, for which the “% inhibition” value under setting [11] amounted to 52%.
As to “548451 (eG*eT*k[5mC]*d[5mC]*dT*dA*dT*dA*dA*d[5mC]*dT*dA*dT*kA*kA*e[5mC]; antisense) [compound 548451]”, the “% inhibition” value under setting [1] is 0%.
On to “548130 (eA*eT*kT*dT*dG*dA*d[5mC]*dT*dT*dG*dA*dA*d[5mC]*kT*k[5mC]*eA; antisense) [compound 548130]”, for which, under setting [2], the “% inhibition” value is 27%.
On to “548212 (eA*eG*k[5mC]*d[5mC]*d[5mC]*dA*d[5mC]*d[5mC]*dA*dA*d[5mC]*dA*dA*kT*k[5mC]*eT; antisense) [compound 548212]”, for which the “% inhibition” value under setting [11] is given as 44%.
For “548149 (eG*eA*k[5mC]*dA*dT*dT*dG*dT*d[5mC]*d[5mC]*dT*d[5mC]*dA*kG*k[5mC]*eA; antisense) [compound 548149]”, under setting [2], the “% inhibition” value was 39%.
“547810 (e[5mC]*e[5mC]*kT*d[5mC]*dA*dT*d[5mC]*dT*dG*dG*d[5mC]*dA*dG*kT*kA*eT; antisense) [compound 547810]”: under setting [6], the “% inhibition” value is 60%.
As to “548071 (eA*eG*kA*dA*dG*d[5mC]*d[5mC]*d[5mC]*d[5mC]*dA*dT*d[5mC]*d[5mC]*kG*kG*eT; antisense) [compound 548071]”, under setting [4], the “% inhibition” value was 55%.
Turning to “548349 (antisense eT*e[5mC]*k[5mC]*dA*dG*dA*dA*dT*dA*d[5mC]*dT*dG*d[5mC]*k[5mC]*k[5mC]*e[5mC]) [compound 548349]”, the “% inhibition” value under setting [5] amounted to 61%.
In the case of “548002 (antisense eA*eA*k[5mC]*d[5mC]*dA*dG*dA*dG*d[5mC]*dT*d[5mC]*d[5mC]*d[5mC]*kT*kT*eG) [compound 548002]”, the “% inhibition” value under setting [4] is 56%.
In the case of “548251 (antisense eG*e[5mC]*k[5mC]*dT*dT*dT*dG*dT*dG*dA*dT*dG*d[5mC]*kG*kA*eT) [compound 548251]”, the “% inhibition” value under setting [9] is reported as 13%.
For the substance “548258 (antisense e[5mC]*eA*kA*dG*dT*dG*d[5mC]*dT*d[5mC]*d[5mC]*d[5mC]*d[5mC]*dA*kT*kG*e[5mC]) [compound 548258]”, under setting [9], the “% inhibition” value stood at 0%.
For “548320 (eG*e[5mC]*kA*d[5mC]*dA*d[5mC]*dA*dG*dA*d[5mC]*dT*dT*dG*k[5mC]*k[5mC]*e[5mC]; antisense) [compound 548320]”, the “% inhibition” value under setting [5] was 0%.
In the case of “548529 (antisense eG*e[5mC]*kG*dA*dT*dT*d[5mC]*d[5mC]*dT*dT*dG*d[5mC]*d[5mC]*kT*k[5mC]*eT) [compound 548529]”, the “% inhibition” value under setting [10] is 56%.
On to “548213 (eG*eA*k[5mC]*dA*dG*d[5mC]*d[5mC]*d[5mC]*dA*d[5mC]*d[5mC]*dA*dA*k[5mC]*kA*eA; antisense) [compound 548213]”, for which the “% inhibition” value under setting [11] is 70%.
Turning to “548568 (eA*eT*kT*dG*dA*d[5mC]*dA*dA*d[5mC]*d[5mC]*dA*dT*d[5mC]*k[5mC]*kT*eA; antisense) [compound 548568]”, under setting [12], the “% inhibition” value was found to be 27%.
As for “548027 (eG*eT*kG*dT*d[5mC]*d[5mC]*dT*dA*dT*dG*dA*dG*dT*kG*kA*e[5mC]; antisense) [compound 548027]”, the “% inhibition” value under setting [4] is 18%.
Consider “547953 (e[5mC]*eT*kA*dT*dA*dT*d[5mC]*d[5mC]*dA*dG*dA*dT*dA*kT*kG*eG; antisense) [compound 547953]”, for which, under setting [3], the “% inhibition” value is given as 16%.
For “548458 (eA*e[5mC]*k[5mC]*dT*dA*dT*dA*dA*d[5mC]*dT*dA*dT*dA*kA*k[5mC]*eA; antisense) [compound 548458]”, the “% inhibition” value under setting [1] was determined as 0%.
Same read-out and setting: with “548450 (e[5mC]*eT*kA*d[5mC]*d[5mC]*dT*dA*dT*dA*dA*d[5mC]*dT*d[5mC]*kT*kA*eA; antisense) [compound 548450]” the figure was 0%.
For “548600 (eT*eG*kG*dT*dG*dG*dT*dG*dG*dG*dA*dT*dT*kG*kG*eT; antisense) [compound 548600]”, under setting [12], the “% inhibition” value is listed as 53%.
As to “547918 (eA*eA*k[5mC]*d[5mC]*d[5mC]*dT*dG*dG*d[5mC]*dA*dA*d[5mC]*dA*kT*k[5mC]*e[5mC]; antisense) [compound 547918]”, the “% inhibition” value is recorded as 1% under setting [7] and 65% under setting [8].
On to “547956 (eG*eT*kT*dA*dA*dA*dA*dG*dG*d[5mC]*dT*dA*dT*kA*kT*e[5mC]; antisense) [compound 547956]”, for which the “% inhibition” value under setting [3] stood at 13%.
